Results reported in patent US20100261711A1, “SELECTIVE ANTICONVULSANT AGENTS AND THEIR USES” (WiSys Technology Foundation, priority 2009, published 2010).
Where two headings read alike, the source gives them in different places. Marks after values point to notes of the source that are not given here.

Tests used:
[1] = test system: MES-induced seizures; assay: Maximal electroshock test (MES), mice; type: in vivo
[2] = test system: Metrazol-induced clonic seizures; assay: Subcutaneous Metrazol test (scMet), mice; type: in vivo
[3] = test system: minimal muscular or neurological impairment; assay: Toxicity (TOX), rotorod procedure, mice; type: in vivo
[4] = test system: MES-induced seizures; assay: Maximal electroshock test (MES), rats; type: in vivo; conditions: Rat PO
Experimental: The benzodiazepine derivative compounds selective for GABAa receptor subunits were tested for the ability to suppress seizures in several standard rat and mouse models of epilepsy. […] The standard models incorporated into anticonvulsant screening include the maximal electroshock test (MES), the subcutaneous Metrazol test (scMet), and evaluations of toxicity (TOX). The data for each condition is presented as a ratio of either the number of animals protected or toxic (loss of locomotor activity) over the number of animals tested at a given time point and dose.
The MES is a model for generalized tonic-clonic seizures and provides an indication of a compound's ability to prevent seizure spread when all neuronal circuits in the brain are maximally active. These seizures are highly reproducible and are electrophysiologically consistent with human seizures. For all tests based on MES convulsions, 60 Hz of alternating current (50 mA in mice, 150 in rats) is delivered for by corneal electrodes which have been primed with an electrolyte solution containing an anesthetic agent (0.5% tetracaine HCL). For Test 1, mice are tested at various intervals following doses of 30, 100 and 300 mg/kg of test compound given by ip injection of a volume of 0.01 mL/g. In Test 2, rats are tested after a dose of 30 mg/kg (po) in a volume of 0.04 mL/g. Test 8 uses varying doses administered via i.p. injection, again in a volume of 0.04 ml/g. […] In Antiepileptic Drugs, Levy, R. H. M., Meldrum, B. S., Eds.; Raven Press: New York, pp 99-110, 1995b.).

[5] = test system: minimal motor deficit (ataxia, abnormal gait); assay: Toxicity (TOX), minimal motor deficit, rats; type: in vivo; conditions: for TOX (Rotorod Test), animals toxic/tested: Rat IP, 100 mg/kg; for Tox, animals toxic/tested: 50 mg/kg
[6] = test system: kindled motor seizure; assay: Hippocampus kindling screen; type: in vivo; conditions: Rats IP, 50 mg/kg after 1.0 h
Excerpt: The hippocampus kindling screen is a useful adjunct to the traditional MES and scMet tests for identification of a substance potential utility for treating complex partial seizures. […] No toxic effects were observed as indicated by the lack of motor impairment on the rats tested.

[7] = test system: 6 Hz psychomotor seizure; assay: Minimal clonic seizure (6 Hz) test; type: in vivo; conditions: Mice IP; for 6 Hz, animals protected/tested: 100 m/k; for ED50: Mus musculus, ip
Outline: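 Mice dosed ip with test compound before 6 Hz corneal-type electrical stimulation lasting 3 s. Protection scored as absence of minimal clonic phase and stereotyped automatistic behaviour seen in untreated animals.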

[8] = target: T1, GABAA/α1 (α1β3γ2 GABAA receptors) (Homo sapiens, UniProt P14867+P18507); assay: Competitive binding assay, [3H]flunitrazepam; conditions: Binding Affinity at GABAA/α1, αxβ3γ2, [3H]flunitrazepam competition
T1 construct: expressed in transfected cells
Outline: (§1)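 Bound ligand was collected on 0.3% polyethyleneimine-pretreated GF/C filters with three ice-cold washes and quantified by liquid scintillation counting; membrane protein was determined against a BSA standard.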

[9] = target: T2, GABAA/α2 (α2β3γ2 GABAA receptors) (Homo sapiens, UniProt P18507+P47869); assay: Competitive binding assay, [3H]flunitrazepam; conditions: Binding Affinity at GABAA/α2, αxβ3γ2, [3H]flunitrazepam competition
T2 construct: expressed in transfected cells
Outline: as §1

[10] = Mice, 50 mg/kg PO (Mice IP), 0.5 hr
[11] = Mice, 50 mg/kg PO (Mice IP), 4.0 hr

C#Cc1ccc2c(c1)C(c1ccccn1)=NCc1c(C(=O)OCC)ncn1-2 [Hz166 (106), 8-Acetylenyl-6-pyridin-2-yl-4H-benzo[f]imidazo[1,5-a][1,4]diazepine-3-carboxylic acid ethyl ester]
MES, animals protected/tested ([1]; Mice IP, 100 mg/kg, 0.5 hr): 0/3
MES, animals protected/tested ([1]; Mice IP, 100 mg/kg, 4.0 hr): 0/3
MES, animals protected/tested [1, 10]: 1/4
MES, animals protected/tested [1, 11]: 0/4
ED50 ([1]; Mus musculus, Mice IP): > 300 mg/kg
mice protected against scMet induced seizures ([2]; Mice IP, 100 mg/kg, 0.5 hr): 60%
scMet, animals protected/tested ([2]; Mice IP, 100 mg/kg, 0.5 hr): 3/5
scMet, animals protected/tested ([2]; Mice IP, 100 mg/kg, 4.0 hr): 0/1
scMet, animals protected/tested [2, 10]: 4/4
scMet, animals protected/tested [2, 11]: 0/4
ED50 ([2]; Mus musculus, Mice IP): 16.3 mg/kg
TOX (Rotorod Test), animals toxic/tested ([3]; Mice IP, 100 mg/kg, 0.5 hr): 0/8
TOX (Rotorod Test), animals toxic/tested ([3]; Mice IP, 100 mg/kg, 4.0 hr): 0/4
TD50 TOX ([3]; Mice IP, rotorod): > 500 mg/kg
TOX (Rotorod Test), animals toxic/tested [3, 10]: 0/4
TOX (Rotorod Test), animals toxic/tested [3, 11]: 0/4
ED50 [4]: > 250 mg/kg
MES, animals protected/tested ([4]; 30 mg/kg, 0.5 h): 1/4
MES, animals protected/tested ([4]; 30 mg/kg, 1.0 h): 0/4
MES, animals protected/tested ([4]; 30 mg/kg, 2.0 h): 0/4
MES, animals protected/tested ([4]; 30 mg/kg, 4.0 h): 0/4
MES, animals protected/tested ([4]; 30 mg/kg, […]): 0/4
TOX (Rotorod Test), animals toxic/tested ([5]; 0.5 hr): 0/8
TOX (Rotorod Test), animals toxic/tested ([5]; 4.0 hr): 0/8
Tox, animals toxic/tested ([5]; Rat PO, 0.5 h): 0/4
Tox, animals toxic/tested ([5]; Rat PO, 1.0 h): 0/4
Tox, animals toxic/tested ([5]; Rat PO, 2.0 h): 0/4
Tox, animals toxic/tested ([5]; Rat PO, 4.0 h): 0/4
Tox, animals toxic/tested ([5]; Rat PO, […]): 0/4
TD50 TOX ([5]; Rat PO, abnormal gait): >500 mg/kg
motor impairment / sedative or locomotor effects ([5]; rats, oral administration, up to 500 mg/kg): No motor impairment
Tox, animals toxic/tested [6]: 0/8^a
Afterdischarge Duration, Drug (Low-High) ([6]; pre-drug 47-61): 59- s
6 Hz, animals protected/tested ([7]; 44 mA, 0.5 hr): 1/4
6 Hz, animals protected/tested ([7]; 44 mA, 1.0 hr): 1/4
6 Hz, animals protected/tested ([7]; 44 mA, 2.0 hr): 0/4
6 Hz, animals protected/tested ([7]; 44 mA, 4 hr): 0/4
6 Hz, animals protected/tested ([7]; 44 mA, […]): 4/4
ED50 ([7]; 32 mA, read-out: ED50 32 mA (6 Hz test)): 25.8 mg/kg
ED50 ([7]; 44 mA, read-out: ED50 44 mA (6 Hz test)): 115 mg/kg

C#Cc1ccc2c(c1)C(c1ccccc1)=N[C@H](C)c1nnc(C)n1-2 [SH-TR-CH3 (146), (4R)-8-Ethynyl-1,4-dimethyl-6-phenyl-4H-benzo[f][1,2,4]triazolo[4,3-a][1,4]diazepine]
Ki [8]: 7.37 µM
Ki [9]: 1.53 µM
MES, animals protected/tested ([1]; Mice IP, 30 mg/kg, 0.5 Hr): 0/1
MES, animals protected/tested ([1]; Mice IP, 30 mg/kg, 4.0 Hr): 0/1
MES, animals protected/tested ([1]; Mice IP, 100 mg/kg, 0.5 hr): 0/3
MES, animals protected/tested ([1]; Mice IP, 100 mg/kg, 4.0 hr): 0/3
MES, animals protected/tested ([1]; Mice IP, 300 mg/kg, 0.5 Hr): 0/1
MES, animals protected/tested ([1]; Mice IP, 300 mg/kg, 4.0 Hr): 0/1
scMet, animals protected/tested ([2]; Mice IP, 30 mg/kg, 0.5 Hr): 0/1
scMet, animals protected/tested ([2]; Mice IP, 30 mg/kg, 4.0 Hr): 0/1
scMet, animals protected/tested ([2]; Mice IP, 100 mg/kg, 0.5 hr): 0/1
scMet, animals protected/tested ([2]; Mice IP, 100 mg/kg, 4.0 hr): 0/1
scMet, animals protected/tested ([2]; Mice IP, 300 mg/kg, 0.5 Hr): 1/1
scMet, animals protected/tested ([2]; Mice IP, 300 mg/kg, 4.0 Hr): 0/1
TOX (Rotorod Test), animals toxic/tested ([3]; Mice IP, 30 mg/kg, 0.5 Hr): 0/4
TOX (Rotorod Test), animals toxic/tested ([3]; Mice IP, 30 mg/kg, 4.0 Hr): 0/2
TOX (Rotorod Test), animals toxic/tested ([3]; Mice IP, 100 mg/kg, 0.5 hr): 1/8
TOX (Rotorod Test), animals toxic/tested ([3]; Mice IP, 100 mg/kg, 4.0 hr): 0/4
TOX (Rotorod Test), animals toxic/tested ([3]; Mice IP, 300 mg/kg, 0.5 Hr): 1/4
TOX (Rotorod Test), animals toxic/tested ([3]; Mice IP, 300 mg/kg, 4.0 Hr): 0/2
MES, animals protected/tested ([4]; 50 mg/kg, 0.5 h): 0/4
MES, animals protected/tested ([4]; 50 mg/kg, 1.0 h): 0/4
MES, animals protected/tested ([4]; 50 mg/kg, 2.0 h): 0/4
MES, animals protected/tested ([4]; 50 mg/kg, 4.0 h): 0/4
MES, animals protected/tested ([4]; 50 mg/kg, […]): 0/4
Tox, animals toxic/tested ([5]; Rat PO, 0.5 h): 0/4
Tox, animals toxic/tested ([5]; Rat PO, 1.0 h): 1/4
Tox, animals toxic/tested ([5]; Rat PO, 2.0 h): 1/4
Tox, animals toxic/tested ([5]; Rat PO, 4.0 h): 0/4
Tox, animals toxic/tested ([5]; Rat PO, […]): 0/4
6 Hz Time to Peak Effect, protected/tested ([7]; 7 mg/kg, 32 mA, 0.25 Hr): 4/4
6 Hz Time to Peak Effect, protected/tested ([7]; 7 mg/kg, 32 mA, 0.5 Hr): 4/4
6 Hz Time to Peak Effect, protected/tested ([7]; 7 mg/kg, 32 mA, 1.0 Hr): 2/4
6 Hz Time to Peak Effect, protected/tested ([7]; 15 mg/kg, 32 mA, 0.25 Hr): 4/4
6 Hz Time to Peak Effect, protected/tested ([7]; 15 mg/kg, 32 mA, 0.5 Hr): 4/4^14
6 Hz Time to Peak Effect, protected/tested ([7]; 15 mg/kg, 32 mA, 1.0 Hr): 4/4^14
6 Hz Time to Peak Effect, protected/tested ([7]; 15 mg/kg, 32 mA, 2.0 Hr): 2/4
6 Hz Time to Peak Effect, protected/tested ([7]; 15 mg/kg, 32 mA, 4.0 Hr): 1/4
6 Hz Time to Peak Effect, protected/tested ([7]; 50 mg/kg, 32 mA, 0.25 Hr): 4/4^14
6 Hz Time to Peak Effect, protected/tested ([7]; 50 mg/kg, 32 mA, 0.5 Hr): 4/4^14
6 Hz Time to Peak Effect, protected/tested ([7]; 100 mg/kg, 32 mA, 0.25 Hr): 4/4^14
6 Hz Time to Peak Effect, protected/tested ([7]; 100 mg/kg, 32 mA, 0.5 Hr): 4/4^14
6 Hz Time to Peak Effect, protected/tested ([7]; 100 mg/kg, 32 mA, 1.0 Hr): 4/4^14
6 Hz Time to Peak Effect, protected/tested ([7]; 100 mg/kg, 32 mA, 2.0 Hr): 4/4^14
6 Hz Time to Peak Effect, protected/tested ([7]; 100 mg/kg, 32 mA, 4.0 Hr): 4/4^14
6 Hz ED50 Biological Response, protected/tested ([7]; 32 mA, 0.25 Hr, 1.75 mg/kg): 4/8
6 Hz ED50 Biological Response, protected/tested ([7]; 32 mA, 0.25 Hr, 7 mg/kg): 8/8
6 Hz ED50 Biological Response, protected/tested ([7]; 44 mA, 0.25 Hr, 5 mg/kg): 5/8
6 Hz ED50 Biological Response, protected/tested ([7]; 44 mA, 0.25 Hr, 10 mg/kg): 8/8
ED50 ([7]; […], 32 mA, 0.25 Hr, read-out: ED50 (6 Hz)): 2.08 mg/kg
ED50 ([7]; […], 44 mA, 0.25 Hr, read-out: ED50 (6 Hz)): 4.55 mg/kg
